Test results reported in patent publication US20260327655A1, “SMALL-MOLECULE REGULATED ALTERNATIVE SPLICING” (priority 2023, published 2026).

Key:
Assay type in all cases: cell-based
RS1-10 = experiment: Dose-response profiling assay, RS1-10 Flp-In-293 cell line; details: 18 hours, FIGS. 9D-9F
Method: Single-copy insertion of an switch construct and subsequent cell-line generation was performed in Flp-In-293 cells according to manufacturer's protocols. The RS1-10 sequence fused to a Firefly Luciferase gene was cloned into a Flp-In compatible pcDNA5/FRT expression vector with a CMV promoter and BGH polyadenylation signal. Resulting Flp-In cell line carried a single-copy expression cassette (RSwitch-controlled) integrated into the genome. The RS1-10 Flp-In cell line was cultured in DMEM+10% FBS, collected after trypsinization, and then dispensed into 96-well plates (cell culture-treated). Each well of the plate was seeded with 1.0×10^5 cells in 100 μL culture medium. Subsequently, either DMSO vehicle or a splice modulator compound at specified doses was added to the wells of the plate. Triplicate wells were used for each condition tested in the experiment. Plates were then incubated for 18 hours in a tissue culture incubator (5% CO2, 37° C.). Endpoint analysis was performed by adding 100 uL of a Luciferase substrate, such as Steady-Luc Firefly Luciferase substrate, to each well of the assay plate. The liquid contents of each was transferred to a 96-well plate, mixed again for 2 min on an orbital shaker, and incubated at room temperature for 5 min. Finally, the luminescent signal from each well was measured with a plate reader. Each plotted data point on a graph in a figure represents a mean of 3 wells+/−standard deviation normalized to vehicle controls. A nonlinear regression curve fit of the plotted data points was generated in graphing software.

[1] = tested on: RS1-10 minigene (Firefly Luciferase), HEK-293T cells; experiment: Luciferase induction assay, RS1-10 with splice modulator compounds in HEK-293T cells; details: Homo sapiens, 18 hours, n of 3, read-out: Mean fold-induction of luciferase (relative to vehicle control)
[2] = tested on: RS3-13 minigene (Firefly Luciferase), HEK-293T cells; experiment: Luciferase induction assay, RS3-13 with splice modulator compounds in HEK-293T cells; details: Homo sapiens, 18 hours, n of 3, read-out: Mean fold-induction of luciferase (relative to vehicle control)

## CCN1CC(c2ccc(-c3ccc(-c4ccc5nn(C)cc5c4)cc3O)nn2)C1 [Compound 24A, 2-[6-(1-ethylazetidin-3-yl)pyridazin-3-yl]-5-(2-methyl-2H-indazol-5-yl)phenol]
RS1-10
  fold-induction of luciferase signal, dose response: increase in fold-induction of luciferase signal with increasing concentrations
[1]; RS1-10, 100 nM
  fold induction at 0.1 µM: 74.1
[1]; RS1-10, 1,000 nM
  fold induction at 1 µM: 84
[2]; RS3-13, 100 nM
  fold induction at 0.1 µM: 6.27
[2]; RS3-13, 1,000 nM
  fold induction at 1 µM: 42.4
